{"source": "patent US11884636B2", "about": "“Gonadotropin releasing hormone receptor antagonist and use thereof” (SHIJIAZHUANG YILING PHARMACEUTICAL CO., LTD., priority 2020, dated 2024)", "key": {"[1]": {"target": "T1, recombinant human gonadotropin-releasing hormone receptor (GnRHR) (Homo sapiens, UniProt P30968)", "T1 construct": "expressed in transfected cells", "T1 sequence (P30968 1-328)": "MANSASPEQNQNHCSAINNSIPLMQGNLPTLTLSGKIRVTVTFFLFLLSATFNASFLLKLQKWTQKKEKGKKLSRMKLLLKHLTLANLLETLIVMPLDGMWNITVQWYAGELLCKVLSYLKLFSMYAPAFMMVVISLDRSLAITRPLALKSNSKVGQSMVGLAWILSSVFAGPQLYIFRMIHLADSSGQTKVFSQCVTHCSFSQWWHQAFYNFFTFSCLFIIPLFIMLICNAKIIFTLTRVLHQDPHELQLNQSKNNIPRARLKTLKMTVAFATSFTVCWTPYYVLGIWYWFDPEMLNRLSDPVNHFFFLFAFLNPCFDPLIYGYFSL", "experiment": "FLIPR calcium flux assay in CHO-K1/GNRHR/Gα15 cells", "type": "cell-based", "conditions": "Buserelin EC80 agonist, read-out: EC50, inhibition of intracellular calcium release", "experimental": "Intracellular calcium changes of cell line CHO-K1/GNRHR/Gα15 that is stable of a recombinant human gonadotropin-releasing hormone receptor (GnRHR) were measured using an FLIPR calcium flux assay kit (Calcium 4 assay kit). GnRHR is a G protein-coupled receptor (GPCRs), and a GPCRs signal enabled intracellular calcium release through a Gq pathway. Therefore, functional changes of GnRHR, which carried out signal transduction through the Gq pathway, can be detected by detecting intracellular calcium release with a calcium-sensitive fluorescent probe. The assay steps were as follows: • 1. Cells were seeded in 384-well plates (Corning, Cat #:3764) at a density of 10,000 cells/well with an F12+10% FBS medium (20 μl/well) and cultured overnight (18 h). • 2. A dye working solution was prepared from a probenecid stock solution (500 mM) and a Calcium 4 stock solution mixed at 1:100. A sample to be tested G201 and Elagolix (2 mM in DMSO) was diluted with an assay buffer, specifically, 5 μl of 2 mM stock solution was taken and diluted to 200 μl (50 μM) to obtain a 5× sample working solution of a first concentration. 20 μl of the 5× sample working solution was taken and diluted to 200 μl, and after even mixing, a sample working solution of a second concentration was obtained. A total of eight gradient dilutions of sample working solutions were prepared respectively. […]"}, "[2]": {"experiment": "Rat pharmacokinetic assay", "type": "in vivo", "conditions": "SD rats; for F (absolute bioavailability) / bioavailability: oral gavage 50 mg/kg vs intravenous 25 mg/kg; for bioavailability / AUC(0-inf) / Cmax / Tmax / AUC(0-t) / clearance / Vd: female, rat, plasma; for bioavailability: SD, oral, 50 mg/kg, read-out: F (absolute bioavailability); for AUC(0-t): read-out: AUC0-24 h; for clearance: read-out: CLz (clearance rate) (converted); for Vd: read-out: Vz (apparent volume of distribution)", "experimental": "12 female SD rats, divided into four groups of three per group, were administrated G201 (dissolved in saline containing 5% N,N-dimethylacetamide and 5% cremophor ELL) and Elagolix Sodium (dissolved directly in saline) intravenously and by gavage at doses of 25 mg/kg and 50 mg/kg, respectively. Food was fasted overnight before administration and resumed 4 h after administration, with free access to water throughout the assay period. Blood was collected from the retro-orbital venous plexus before and 5, 15, 30 min, 1, 2, 4, 6, 8, 24 h after administration, and the volume of blood collected was approximately 0.2 mL. A whole blood sample centrifuged at 4000 rpm for 10 min within 1 h from collection. The upper layer of plasma was separated and stored in a refrigerator at minus 20° C. within 1 h until analysis. After the plasma sample were precipitated by methanolic protein at 1:8, G201 and Elagolix plasma concentrations were measured by an LC-MS/MS method, and main pharmacokinetic parameters were calculated by applying DAS3.2.7 software."}, "[3]": {"experiment": "Mouse pharmacokinetic assay", "type": "in vivo", "conditions": "ICR mice", "experimental": "10 female ICR mice, divided into two groups of five per group, were administrated G201 intravenously and by oral gavage, respectively, at a dose of 10 mg/kg. Blood was collected from the retro-orbital venous plexus 0.083, 0.25, 0.5, 1, 2, 4, 6, 8 h after administration, and the volume of blood collected was approximately 0.1 mL. A blood sample was centrifuged at 4000 rpm for 10 min within 1 h. The upper layer of plasma was separated and stored in a refrigerator at minus 80° C. within 1 h to be measured. The subject animals were fasted for at least 12 h before blood collection and were not water fasted. Food and water were fasted during blood collection and free 2 h after administration. The plasma concentration of G201 in the ICR mice was measured by an LC-MS/MS method, and main pharmacokinetic parameters were calculated by applying DAS 3.2.7 pharmacokinetic software and include AUC0-4, AUC0-∞, Cmax, t1/2, etc."}, "[4]": {"system": "serum luteinizing hormone (LH)", "experiment": "Pharmacodynamic assay in male emasculated cynomolgus monkeys (serum LH)", "type": "in vivo", "experimental": "Three male cynomolgus monkeys (purchased from Guangxi GuiDong Quadrumana Development & Laboratory Co., Ltd.), 3 to 5 years old (weight 3.8 to 4.0 kg), were fasted overnight and underwent bilateral orchiectomy under anesthesia. Serum luteinizing hormone (LH) was measured in the cynomolgus monkeys from 3 to 7 weeks after emasculation using radioimmunoassay.\nAfter successful emasculation surgical modeling, G201 and Elagolix Sodium (dissolvent: 0.5% CMC-Na) were given in 2 administration cycles by single oral gavage at doses of 10 mg/kg and 30 mg/kg, respectively, both in a volume of 10 mL/kg. Each administration cycle was separated by an elution period of approximately 2 weeks. For each cycle of administration, blood was collected before and 0.25, 0.5, 1, 2, 3, 6, 8 and 24 h after administration, respectively, and serum was separated for gonadal hormone LH assay."}, "[5]": {"conditions": "mice, dose of 10 mg/kg; cited from earlier work"}, "[6]": {"conditions": "rats; cited from earlier work"}, "[7]": {"conditions": "monkeys; cited from earlier work"}, "[8]": {"conditions": "rats, oral radiolabeled Elagolix; cited from earlier work"}, "[9]": {"conditions": "human bodies; cited from earlier work"}, "[10]": {"conditions": "female, mouse, plasma, intravenous injection 10 mg/kg"}, "[11]": {"conditions": "female, mouse, plasma, oral administration 10 mg/kg"}}, "note": "“Also recorded” adds a separate entry of the source. Like-named read-outs stand apart in the source and are kept apart here.", "data": [{"smiles": "COc1cccc(-c2c(C)n(Cc3c(F)cccc3C(F)(F)F)c(=O)n(C[C@H](NCCCC(=O)O)c3ccccc3F)c2=O)c1F", "note": "[Compound G201]", "values": [{"measurement": "IC50", "setting": "[1]", "value": 37.6, "unit": "nM"}, {"measurement": "t1/2z", "setting": "[2]; intravenous injection 25 mg/kg", "value": 47.4, "unit": "min"}, {"measurement": "oral AUC0-∞ relative to that of Elagolix Sodium", "setting": "[2]; oral gavage 50 mg/kg", "value": "three times"}, {"measurement": "t1/2z", "setting": "[2]; oral gavage 50 mg/kg", "value": 282, "unit": "min"}, {"measurement": "F (absolute bioavailability)", "setting": "[2]", "value": 51.9, "unit": "%"}, {"measurement": "bioavailability", "setting": "[2]", "value": 51.9, "unit": "%"}, {"measurement": "AUC(0-inf)", "setting": "[2]; intravenous injection 25 mg/kg", "value": 15700, "unit": "ng·h/mL"}, {"measurement": "Cmax", "setting": "[2]; intravenous injection 25 mg/kg", "value": 27200, "unit": "ng/mL"}, {"measurement": "Tmax", "setting": "[2]; intravenous injection 25 mg/kg", "value": 4.8, "unit": "min"}, {"measurement": "AUC(0-t)", "setting": "[2]; intravenous injection 25 mg/kg", "value": 15700, "unit": "ng·h/mL"}, {"measurement": "clearance", "setting": "[2]; intravenous injection 25 mg/kg", "value": 27, "unit": "mL/min/kg"}, {"measurement": "Vd", "setting": "[2]; intravenous injection 25 mg/kg", "value": 1.82, "unit": "L/kg"}, {"measurement": "AUC(0-inf)", "setting": "[2]; oral gavage 50 mg/kg", "value": 16400, "unit": "ng·h/mL"}, {"measurement": "Cmax", "setting": "[2]; oral gavage 50 mg/kg", "value": 17000, "unit": "ng/mL"}, {"measurement": "Tmax", "setting": "[2]; oral gavage 50 mg/kg", "value": 25.2, "unit": "min"}, {"measurement": "AUC(0-t)", "setting": "[2]; oral gavage 50 mg/kg", "value": 16300, "unit": "ng·h/mL"}, {"measurement": "CLz", "setting": "[3]; intravenous injection 10 mg/kg", "value": 53, "unit": "mL/min/kg"}, {"measurement": "t1/2z", "setting": "[3]; intravenous injection 10 mg/kg", "value": 15.6, "unit": "min"}, {"measurement": "t1/2z", "setting": "[3]; oral administration 10 mg/kg", "value": 25.8, "unit": "min"}, {"measurement": "AUC(0-inf)", "setting": "[3]; [10]", "value": 3250, "unit": "ng·h/mL"}, {"measurement": "AUC(0-t)", "setting": "[3]; [10]", "value": 3240, "unit": "ng·h/mL"}, {"measurement": "Vd", "setting": "[3]; female, mouse, plasma, intravenous injection 10 mg/kg, read-out: Vz", "value": 1.17, "unit": "L/kg"}, {"measurement": "AUC(0-inf)", "setting": "[3]; [11]", "value": 1270, "unit": "ng·h/mL"}, {"measurement": "AUC(0-t)", "setting": "[3]; [11]", "value": 1010, "unit": "ng·h/mL"}, {"measurement": "Cmax", "setting": "[3]; [11]", "value": 2000, "unit": "ng/mL"}, {"measurement": "Tmax", "setting": "[3]; [11]", "value": 16.2, "unit": "min"}, {"measurement": "bioavailability", "setting": "[3]; female, mouse, plasma, oral administration 10 mg/kg vs intravenous 10 mg/kg, read-out: F (absolute bioavailability)", "value": 38.9, "unit": "%"}, {"measurement": "general condition, weight and abnormalities during the assay period", "setting": "[4]; single oral gavage 10 mg/kg", "value": "no subject-related abnormalities were observed"}, {"measurement": "serum LH change after administration", "setting": "[4]; single oral gavage 10 mg/kg", "value": "decreased significantly"}, {"measurement": "time of serum LH minimum after administration", "setting": "[4]; single oral gavage 10 mg/kg", "value": 3, "unit": "h"}, {"measurement": "serum LH inhibitory effect compared with 30 mg/kg Elagolix Sodium", "setting": "[4]; single oral gavage 10 mg/kg G201", "value": "slightly higher magnitude of change; also recorded: comparable or superior"}]}, {"smiles": "COc1cccc(-c2c(C)n(Cc3c(F)cccc3C(F)(F)F)c(=O)n(C[C@H](NCCCC(=O)[O-])c3ccccc3)c2=O)c1F.[Na+]", "note": "[Elagolix Sodium, Sodium R-(+)-4-{2-[5-(2-Fluoro-3-methoxyphenyl)-3-(2-fluoro-6-[trifluoromethyl]-benzyl)-4-methyl-2,6-dioxo-3,6-dihydro-2H-pyrimidin-1-yl]-1-phenylethylamino}butyrate, reference compound]", "values": [{"measurement": "t1/2z", "setting": "[2]; intravenous injection 25 mg/kg", "value": 130, "unit": "min"}, {"measurement": "t1/2z", "setting": "[2]; oral gavage 50 mg/kg", "value": 272, "unit": "min"}, {"measurement": "F (absolute bioavailability)", "setting": "[2]", "value": 23.7, "unit": "%"}, {"measurement": "bioavailability", "setting": "[2]", "value": 23.6, "unit": "%"}, {"measurement": "AUC(0-inf)", "setting": "[2]; intravenous injection 25 mg/kg", "value": 10200, "unit": "ng·h/mL"}, {"measurement": "Cmax", "setting": "[2]; intravenous injection 25 mg/kg", "value": 15600, "unit": "ng/mL"}, {"measurement": "Tmax", "setting": "[2]; intravenous injection 25 mg/kg", "value": 4.8, "unit": "min"}, {"measurement": "AUC(0-t)", "setting": "[2]; intravenous injection 25 mg/kg", "value": 10200, "unit": "ng·h/mL"}, {"measurement": "clearance", "setting": "[2]; intravenous injection 25 mg/kg", "value": 41.3, "unit": "mL/min/kg"}, {"measurement": "Vd", "setting": "[2]; intravenous injection 25 mg/kg", "value": 8.46, "unit": "L/kg"}, {"measurement": "AUC(0-inf)", "setting": "[2]; oral gavage 50 mg/kg", "value": 4870, "unit": "ng·h/mL"}, {"measurement": "Cmax", "setting": "[2]; oral gavage 50 mg/kg", "value": 4660, "unit": "ng/mL"}, {"measurement": "Tmax", "setting": "[2]; oral gavage 50 mg/kg", "value": 25.2, "unit": "min"}, {"measurement": "AUC(0-t)", "setting": "[2]; oral gavage 50 mg/kg", "value": 4830, "unit": "ng·h/mL"}, {"measurement": "general condition, weight and abnormalities during the assay period", "setting": "[4]; single oral gavage 30 mg/kg", "value": "no subject-related abnormalities were observed"}, {"measurement": "serum LH change after administration", "setting": "[4]; single oral gavage 30 mg/kg", "value": "decreased significantly"}, {"measurement": "time at which serum LH returned to the pre-administration level", "setting": "[4]; single oral gavage 30 mg/kg", "value": 24, "unit": "h"}, {"measurement": "time of serum LH minimum after administration", "setting": "[4]; single oral gavage 30 mg/kg", "value": 3, "unit": "h"}]}, {"smiles": "COc1cccc(-c2c(C)n(Cc3c(F)cccc3C(F)(F)F)c(=O)n(C[C@H](NCCCC(=O)[O-])c3ccccc3)c2=O)c1F.[Na+]", "note": "[Elagolix, Sodium R-(+)-4-{2-[5-(2-Fluoro-3-methoxyphenyl)-3-(2-fluoro-6-[trifluoromethyl]-benzyl)-4-methyl-2,6-dioxo-3,6-dihydro-2H-pyrimidin-1-yl]-1-phenylethylamino}butyrate]", "values": [{"measurement": "absolute bioavailability", "setting": "[5]", "value": 10, "unit": "%"}, {"measurement": "absolute oral bioavailability", "setting": "[6]", "value": 5.8, "unit": "%"}, {"measurement": "absolute oral bioavailability", "setting": "[7]", "value": 11, "unit": "%"}, {"measurement": "total radioactivity excreted through the bile", "setting": "[8]", "value": "~50", "unit": "%"}, {"measurement": "apparent volume of distribution", "setting": "[9]", "value": 1674, "unit": "L"}]}]}
